Data as given in article PMC3596309 (2013).

Experiments:
[1] = test system: Tel26 (DNA, G4) AAAGGGTTAGGGTTAGGGTTAGGGAA; experiment: ITC; conditions: 20 mM KCl; 10 mM Tris, pH 7.5, 25°C; site 1 of 2; two sequential sites
[2] = test system: wtTel26 (DNA, G4) TTAGGGTTAGGGTTAGGGTTAGGGTT; experiment: CD melting at 290 nm; conditions: 20 mM KCl; 10 mM Tris, pH 7.5; 4 µM DNA, complex at 2:1 molar ratio
[3] = test system: Tel22 (DNA, G4) AGGGTTAGGGTTAGGGTTAGGG; experiment: CD melting at 290 nm; conditions: 20 mM KCl; 10 mM Tris, pH 7.5; 4 µM DNA, complex at 2:1 molar ratio
[4] = test system: Tel22 (DNA, G4) AGGGTTAGGGTTAGGGTTAGGG; experiment: ITC; conditions: 20 mM KCl; 10 mM Tris, pH 7.5, 37°C; one set of equivalent sites
[5] = test system: wtTel26 (DNA, G4) TTAGGGTTAGGGTTAGGGTTAGGGTT; experiment: ITC; conditions: 20 mM KCl; 10 mM Tris, pH 7.5, 25°C; one set of equivalent sites
[6] = test system: scT22 (DNA, single strand) GGATGTGAGTGTGAGTGTGAGG; experiment: CD titration; conditions: 20 mM KCl; 10 mM Tris, pH 7.5, 25°C; 4 µM DNA; two bases per metal complex; per base
[7] = test system: Tel26 (DNA, G4) AAAGGGTTAGGGTTAGGGTTAGGGAA; experiment: CD melting at 290 nm; conditions: 20 mM KCl; 10 mM Tris, pH 7.5; 4 µM DNA, complex at 2:1 molar ratio

Question: Which Ka [1] does the source give for `CN(C)CCNCc1ccnc2c1ccc1cccnc12.CN(C)CCNCc1ccnc2c1ccc1cccnc12.[Ni+2]` here?
Answer: 8.7 ± 3.3 × 10^5 M^-1

Question: What about the ΔTm [2] of the same compound?
Answer: 15.2 °C

Question: And the ΔTm [3]?
Answer: 10.4 °C

Question: And the Ka [4]?
Answer: 35.1 ± 0.6 × 10^5 M^-1

Question: And the Ka [5]?
Answer: 4.7 ± 1.7 × 10^5 M^-1

Question: And the Ka [6]?
Answer: 270000 M⁻¹

Question: What about the ΔTm [7] of the same compound?
Answer: 13.8 °C
